# “Also recorded” adds a separate entry of the source.
# System: phosphatidic acid (PA) subspecies in 293tat cells
# Experiment: PA composition of 293tat cells by HPLC
# Format: cell-based, human
# Procedure: One must first quantitatively and qualitatively separate PAs from the other lipids found in serum by a chemical extraction of lipids and high performance liquid chromatography (HPLC) to separate and detect PAs. […] Briefly, the method of Bligh et al. involves an organic extraction of lipids from biological tissue homogenates or fluids. One volume of sample and three volumes of methanol:chloroform (2:1) are vigorously shaken for 2 min. One volume of chloroform is added and then shaken vigorously for 30 sec. One volume of water is added and then shaken vigorously for 30 sec. The mixture is filtered and the upper aqueous layer is discarded. The lower organic layer contains a mixture of lipid classes. The method of Folch et al. involves the extraction of lipids from biological tissue homogenates or body fluids. One volume of sample plus 20 volumes of chloroform:methanol (2:1) are vigorously shaken for 2 min. The mixture is filtered and an amount of 0.1 N KCl equal to 20% of the extraction mixture volume is added and the mixture is shaken vigorously for 2 min. The aqueous and organic phases are allowed to separate. The upper aqueous layer is discarded. The lower organic layer contains a mixture of lipid classes. […] This method involves separation of lipids into their major classes by normal phase (silica) high performance liquid chromatography (HPLC). A 5 micron, 25 cm×0.45 cm silica HPLC column is connected to a binary solvent delivery system followed with a UV detector. The lipid sample is injected on the column and a solvent gradient is run at 1.0 ml/min. The solvent gradient is hexane:isopropanol:water in the proportions 3:4:0.75 run isocratically for 3 min, then ramped to hexane:isopropanol:water in the proportions 3:4:1.4 in 15 min, then run isocratically at the same proportions for 15 min. Detection is at 206 nm.
# One of the steps after cell activation involves the hydrolysis of phosphatidylcholine (PC), the major phospholipid of cellular membranes, by phospholipases C and D, leading to the generation of second messengers, such as PA and DG, in the signal transduction cascade.
structure (smiles),measurement,setting,value
"CCCCCCCCNCC(O)CCCCCCCCCn1c(=O)c2c(ncn2C)n(C)c1=O (stereo not shown) [CT2576, 1-(11-octylamino-10-hydroxyundecyl)-3,7-dimethylxanthine]",effect on generation of myrPA species / turnover of PA subspecies,,affected the turnover of PA subspecies; also recorded: affects the generation of myrPA species
same,"long chain unsaturated PA, share of far UV absorbing lipids after preincubation",8 μM CT2576,15%
same,"long chain unsaturated PA, share of far UV absorbing lipids after 2 minutes TNF-α","8 μM CT2576, 2 minutes of TNF-α",20%
same,short chained saturated PA subspecies,preincubation with 8 μM CT2576,less after CT2576 preincubation than without treatment; also recorded: very little change with addition of TNF-α
